The source of these data is patent US20240269094A1, “Treatment of canine dermatitis and skin irritation” (priority 2023, published 2024).

Assay [1] has as its target T1, TRPM8 (Mus musculus, UniProt Q8R4D5). In words: TRPM8 in vitro assay, EC50 of cooling agents (published data, Table 5 / FIG. 3). To be noted: Behrendt et al., 4.1/44. The format is cell-based. From the text:
(§1) FIG. 3. Median Effective Dose (EC50) of various cooling agents in TRPM8 in vitro assay.
(§2) A receptor assay is a standard tool and can be done quickly. For example, in a 384-plate assay, you can easily test 10 compounds and get dose-response data. For a chemical agonist, an in vitro TRPM8 assay generates an EC50 (median effective concentration). But the quantitative correlation between the EC50 on TRPM8 and cooling sensation is not always clear. That is, the language of receptor identification and potency was “roughly” predictive, but there was considerable uncertainty for each agonist. […] Table 5 summarizes results on TRPM8 EC50 (see FIG. 3). The specific references for each value are: […] The full citations are listed in the References. Leffingwell. Ref. 4 gives the FEMA numbers for each compound.
(§3) FIG. 3. Median Effective Dose (EC50) of various cooling agents in TRPM8 in vitro assay. […] The Ref. No. in Table 5 are to: 1=McKemy et al., 2002; 2=Behrendt et al., 2004; 3=Bodding et al., 2007; 4=Sherkheli et al., 2010; and 5=Johnson et al., 2018.
(§4) TRPM8 EC50 Receptor Assay. […] A receptor assay is a standard tool and can be done quickly. […] But the quantitative correlation between the EC50 on TRPM8 and cooling sensation was vague. […]

Assay [2] has as its system tongue. In words: Oral cavity screen: 15 mg of crystals on the dorsal surface of the tongue. It counts as in vivo, human. The protocol: In this discovery, sensory activity in the oral cavity was the first screen. The goal was to identify candidates producing unusual sensations. Test agents, prepared as 15 mg of white crystals, were placed on the dorsal surface of the tongue. The chemical structures and identifying characteristics are in Table 1. […] Related cooling agents were not freezing cold, except for WS-23.

In assay [3] the test system is philtrum skin. In words: Philtrum (skin) bioassay of cooling. It counts as in vivo, human. To be noted: 8% wt/vol on philtrum. The method, then:
FIG. 5. The philtrum bioassay. Cooling agents, prepared as a or in solution are applied to the philtrum skin. Cooling intensity is rated on a scale of 0 to 3, with 0=no changes in sensation, 1=a slight feeling of coolness, cold or tingling, 2=a clearcut feeling of coolness of cold, and 3=a robust feeling of coolness of cold. The duration of cooling was recorded until two zeroes were measured 10 min apart.
TRPM8 EC50 Receptor Assay. […] A receptor assay is a standard tool and can be done quickly. For example, in a 384-plate assay, you can easily test 10 compounds and get dose-response data. For a chemical agonist, an in vitro TRPM8 assay generates an EC50 (median effective concentration). But the quantitative correlation between the EC50 on TRPM8 and cooling sensation was vague. That is, the science was “roughly” predictive, but there was considerable uncertainty for each agonist. […] Philtrum (Skin) Assay. For cooling sensations on the skin, it is necessary to test the substance on the skin. Wei proposed the use of the skin on the philtrum as a test site for cooling activity of chemicals (FIG. 5). The test substance is dissolved in a carrier, such as solvent, gel, or ointment and applied to the philtrum, a surface area of […]. The subject records sensations on the philtrum and environs as:
The subject is given a form to record observations and instructions to mark sensations on the philtrum and environs as: 0=no changes in sensation, 1=a slight feeling of coolness, cold, or tingling, 2=a clearcut feeling of coolness or cold, and 3=a robust feeling of coolness and cold.
The intervals for measurements are usually at 5, to 15 min after application, until two successive zeros are obtained. The philtrum application site is the midline groove above the upper lip border and vermilion. The gel is placed on the philtrum with a cotton-tipped applicator up to the nasolabial folds and sometimes, but not deliberately, on the lower nostrils (subnasale). Cold receptors densely innervate the philtrum skin (FIG. 5), second only to the surfaces of the eyeball and anogenitalia. The lips also have a high density of “cold spots.” Hensel et al. mapped the cold spots on the human face (cited in Dhaka et al., 2008). In animals such as the rat the mystacial pad (nose pad with vibrissae) is abundantly labeled with TRPM8-fibers. “Cold Points” linked to single-unit neuronal discharges can be measured in experimental animals. Wei has direct experience in such experiments (Poree et al., 1989).
Dip a cotton-tipped applicator (Puritan Cotton-tipped applicators, or Q-Tips) into a reservoir bottle containing the liquid or semi-liquid (gel) test substance. The composition adhering to the cotton (about 0.1 mL) is put on the skin. The philtrum site is shown in a cartoon. A subject can practice the method in front of a mirror with a high-intensity light source. Results for test on the philtrum are in Table 8 and FIG. 5. See data in FIG. 6. Cooling agents, prepared as an 8% wt./vol. gel, was tested topically on the philtrum skin assay. The duration of cooling was recorded (min on y-axis). The startling activity of FEMA 4557, cooling for ˜3 hr, was unexpected and surprising. FEMA 3784 is also known as Cool 10 or menthoxypropanediol. […]

Assay [4] has as its target T1, TRPM8. The note with it: Ref. 2 (Behrendt et al., 2004); cited from earlier work.
In assay [5] the test system is oral cavity. To be noted: 100 ppm in 5% sucrose; scale of 0 to 9 units; Johnson, 2018; cited from earlier work.
Assay [6] addresses T2, TRPM8 (Homo sapiens, UniProt Q7Z2W7). In words: TRPM8 in vitro assay, EC50 of cooling agents (published data, Table 5 / FIG. 3). It counts as cell-based. Details: EC50; other: Johnson, 2.2/2.2. The note with it: Johnson, 2.2/2.2.
Excerpt: as §1, §2, §3, §4

For assay [7], the target named is T3, TRPM8 (Rattus norvegicus, UniProt Q8R455). Described as above. It counts as cell-based. Details: EC50; other: Sherkheli, 196/1500. The note with it: Sherkheli, 196/1500.
Excerpt: as §1, §2, §3, §4

The target of assay [8] is T2, TRPM8. Also noted: EC50; other: Johnson, 2.2/2.2. The note with it: Ref. 5 (Johnson et al., 2018); cited from earlier work.
The target of assay [9] is T3, TRPM8. Details: EC50; other: Sherkheli, 196/1500. To be noted: Ref. 4 (Sherkheli et al., 2010); cited from earlier work.

T1 sequence (Q8R4D5 whole entry): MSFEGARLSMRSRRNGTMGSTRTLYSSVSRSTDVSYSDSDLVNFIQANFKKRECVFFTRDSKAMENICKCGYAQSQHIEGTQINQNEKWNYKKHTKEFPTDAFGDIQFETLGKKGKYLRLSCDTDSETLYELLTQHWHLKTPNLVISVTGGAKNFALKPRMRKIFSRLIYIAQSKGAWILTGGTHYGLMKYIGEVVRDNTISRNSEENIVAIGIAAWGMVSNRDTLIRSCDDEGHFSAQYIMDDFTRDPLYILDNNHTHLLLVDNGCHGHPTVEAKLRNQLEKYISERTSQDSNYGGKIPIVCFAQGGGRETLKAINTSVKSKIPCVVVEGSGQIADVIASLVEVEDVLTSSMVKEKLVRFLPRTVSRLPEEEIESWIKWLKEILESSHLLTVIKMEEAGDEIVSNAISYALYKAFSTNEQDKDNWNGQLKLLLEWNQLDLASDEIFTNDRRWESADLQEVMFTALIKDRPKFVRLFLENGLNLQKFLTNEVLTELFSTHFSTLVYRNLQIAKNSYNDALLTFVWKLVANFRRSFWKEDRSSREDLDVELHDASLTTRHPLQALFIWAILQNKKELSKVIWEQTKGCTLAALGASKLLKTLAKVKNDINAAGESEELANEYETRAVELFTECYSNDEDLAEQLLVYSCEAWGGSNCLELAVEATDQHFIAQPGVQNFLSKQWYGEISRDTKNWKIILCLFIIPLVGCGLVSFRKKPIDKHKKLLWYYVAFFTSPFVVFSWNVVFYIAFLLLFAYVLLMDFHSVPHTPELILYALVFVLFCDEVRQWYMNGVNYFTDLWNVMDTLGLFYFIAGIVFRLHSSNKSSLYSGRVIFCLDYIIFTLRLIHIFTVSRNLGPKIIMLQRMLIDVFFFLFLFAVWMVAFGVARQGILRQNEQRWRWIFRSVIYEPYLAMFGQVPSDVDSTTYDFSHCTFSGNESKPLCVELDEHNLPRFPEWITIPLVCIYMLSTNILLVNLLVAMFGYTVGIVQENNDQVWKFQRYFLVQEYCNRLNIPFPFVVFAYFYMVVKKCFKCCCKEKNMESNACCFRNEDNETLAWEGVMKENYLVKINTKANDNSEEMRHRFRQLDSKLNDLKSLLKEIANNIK

As to `CNC(=O)C(C)(C(C)C)C(C)C` [WS-23], the “potency relative to menthol (TRPM8 EC50 ratio)” value turned out to be 0.09 in assay [1], 1 in [6] and 0.13 in assay [7]. Further, the “Effects of 15 mg on tongue: duration” value in assay [2] was roughly 18 min. The “Effects of 15 mg on tongue: sensation” value in assay [2] was “painful cold in throat”. This compound returned a Duration of cooling in assay [3] of 25 ± 3 min. Further, the EC50 in [4] is 44 µM; in assay [8], 2.2 µM; in [9], 1500 µM. The “Cooling Intensity Oral Cavity Scaled” value in assay [5] is 2.25.

The term EC50 denotes the concentration that produces a half-maximal response.
